According to US10590105B2, “1,3-dihydroxy-phenyl derivatives useful as immunomodulators” (BRISTOL-MYERS SQUIBB COMPANY, priority 2016, dated 2020):

target: PD-1/PD-L1 interaction (PD-1-Ig / PD-L1-His) (Homo sapiens (Human), UniProt Q9NZQ7); assay: PD-1/PD-L1 Homogenous Time-Resolved Fluorescence (HTRF) binding assay; conditions: PD-1/PD-L1 HTRF binding assay; value given as number; read-out: Range or IC50
From the text: The ability of the compounds of formula (I) to bind to PD-L1 was investigated using a PD-1/PD-L1 Homogenous Time-Resolved Fluorescence (HTRF) binding assay.
Homogenous Time-Resolved Fluorescence (HTRF) Binding Assay.
The interaction of PD-1 and PD-L1 can be assessed using soluble, purified preparations of the extracellular domains of the two proteins. The PD-1 and PD-L1 protein extracellular domains were expressed as fusion proteins with detection tags, for PD-1, the tag was the Fc portion of Immunoglobulin (PD-1-Ig) and for PD-L1 it was the 6 histidine motif (PD-L1-His). All binding studies were performed in an HTRF assay buffer consisting of dPBS supplemented with 0.1% […] bovine serum albumin and 0.05% (v/v) Tween-20. For the h/PD-L1-His binding assay, inhibitors were pre-incubated with PD-L1-His (10 nM final) for 15 m in 4 μl of assay buffer, followed by addition of PD-1-Ig (20 nM final) in 1 μl of assay buffer and further incubation for 15 m. HTRF detection was achieved using europium crypate-labeled anti-Ig (1 nM final) and allophycocyanin (APC) labeled anti-His (20 nM final). Antibodies were diluted in HTRF detection buffer and 5 μl was dispensed on top of the binding reaction. The reaction mixture was allowed to equilibrate for 30 minutes and the resulting signal (665 nm/620 nm ratio) was obtained using an EnVision fluorometer. Additional binding assays were established between the human proteins PD-1-Ig/PD-L2-His (20 & 5 nM, respectively) and CD80-His/PD-L1-Ig (100 & 10 nM, respectively).
Recombinant Proteins. Human PD-1 (25-167) with a C-terminal human Fc domain of immunoglobulin G (Ig) epitope tag [hPD-1 (25-167)-3S-IG] and human PD-L1 (18-239) with a C-terminal His epitope tag [hPD-L1(18-239)-TVMV-His] were expressed in HEK293T cells and purified sequentially by ProteinA affinity chromatography and size exclusion chromatography. Human PD-L2-His and CD80-His was obtained through commercial sources.
Ranges are as follows: A=0.001 to 0.010 micromolar; B=0.011 to 0.150 micromolar; C=0.151 to 10 micromolar.

PD-1/PD-L1 interaction (PD-1-Ig / PD-L1-His), sequence (Q9NZQ7 other isoform, or with tags, fused parts or gaps): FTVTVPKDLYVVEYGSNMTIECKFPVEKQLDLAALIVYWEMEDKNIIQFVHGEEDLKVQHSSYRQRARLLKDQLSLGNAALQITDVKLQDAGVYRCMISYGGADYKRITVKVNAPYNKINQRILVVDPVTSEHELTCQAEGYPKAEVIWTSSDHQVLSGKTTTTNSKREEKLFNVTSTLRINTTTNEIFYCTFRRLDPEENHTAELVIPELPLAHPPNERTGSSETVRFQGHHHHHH

IC50 [nM] | SMILES
135 | Cc1c(COc2cc(OCc3cncc(C#N)c3)c(CN[C@](C)(CO)C(=O)O)cc2Cl)cccc1-c1ccc2[nH]cnc2c1 [Example 1024, (R)-2-((4-((3-(1H-benzo[d]imidazol-5-yl)-2-methylbenzyl)oxy)-5-chloro-2-((5-cyanopyridin-3-yl)methoxy)benzyl)amino)-3-hydroxy-2-methylpropanoic acid]

same assay, conditions: PD-1/PD-L1 HTRF binding assay; value given as range class; read-out: Range or IC50

IC50 [nM] | SMILES
1 to 10 | Cc1c(COc2cc(OCc3cncc(C#N)c3)c(CNC(C)(CO)CO)cc2Cl)cncc1-c1cccc(OCCCN2CC[C@@H](O)C2)c1C [Example 2008, (R)-5-((4-chloro-2-(((1,3-dihydroxy-2-methylpropan-2-yl)amino)methyl)-5-((5-(3-(3-(3-hydroxypyrrolidin-1-yl)propoxy)-2-methylphenyl)-4-methylpyridin-3-yl)methoxy)phenoxy)methyl)nicotinonitrile]
1 to 10 | Cc1c(COc2cc(OCc3cncc(C#N)c3)c(CN[C@H](CO)C(=O)O)cc2Cl)cccc1-c1ccc2nccnc2c1 [Example 1034, (R)-2-((5-chloro-2-((5-cyanopyridin-3-yl)methoxy)-4-((2-methyl-3-(quinoxalin-6-yl)benzyl)oxy)benzyl)amino)-3-hydroxypropanoic acid]
151 to 10000 | Cc1c(COc2cc(OCc3cncc(C#N)c3)c(CN3CCCC[C@H]3C(=O)O)cc2Cl)cccc1-c1cnc2ccccc2c1 [Example 1003, (S)-1-(5-chloro-2-((5-cyanopyridin-3-yl)methoxy)-4-((2-methyl-3-(quinolin-3-yl)benzyl)oxy)benzyl) piperidine-2-carboxylic acid]
1 to 10 | Cc1c(COc2cc(OCc3cncc(C#N)c3)c(CN[C@](C)(CO)C(=O)O)cc2Cl)cccc1-c1ccc2scnc2c1 [Example 1021, (R)-2-((4-((3-(benzo[d]thiazol-5-yl)-2-methylbenzyl)oxy)-5-chloro-2-((5-cyanopyridin-3-yl)methoxy)benzyl)amino)-3-hydroxy-2-methylpropanoic acid]
151 to 10000 | Cc1c(COc2cc(OCc3cncc(C#N)c3)c(CN[C@@H](CO)C(=O)O)cc2Cl)cccc1-c1cccn(CCCN2CC[C@@H](O)C2)c1=O [Example 1040, (S)-2-((5-chloro-2-((5-cyanopyridin-3-yl)methoxy)-4-((3-(1-(3-((R)-3-hydroxypyrrolidin-1-yl)propyl)-2-oxo-1,2-dihydropyridin-3-yl)-2-methylbenzyl)oxy)benzyl)amino)-3-hydroxypropanoic acid]
11 to 150 | Cc1c(COc2cc(OCc3cncc(C#N)c3)c(CNC(C)(C)C(=O)O)cc2Cl)cccc1-c1ccc2occc2c1 [Example 1015, 2-((4-((3-(benzofuran-5-yl)-2-methylbenzyl)oxy)-5-chloro-2-((5-cyanopyridin-3-yl)methoxy)benzyl)amino)-2-methylpropanoic acid]
11 to 150 | Cc1c(COc2cc(OCc3cncc(C#N)c3)c(CN[C@](C)(CO)C(=O)O)cc2Cl)cccc1-c1ccc2ncoc2c1 [Example 1017, (R)-2-((4-((3-(benzo[d]oxazol-6-yl)-2-methylbenzyl)oxy)-5-chloro-2-((5-cyanopyridin-3-yl)methoxy)benzyl)amino)-3-hydroxy-2-methylpropanoic acid]
11 to 150 | Cc1c(COc2cc(OCc3cncc(C#N)c3)c(CN3CCC[C@@]3(C)C(=O)O)cc2Cl)cccc1-c1ccc2scnc2c1 [Example 1023, (S)-1-(4-((3-(benzo[d]thiazol-5-yl)-2-methylbenzyl)oxy)-5-chloro-2-((5-cyanopyridin-3-yl)methoxy)benzyl)-2-methylpyrrolidine-2-carboxylic acid]
1 to 10 | Cc1c(COc2cc(OCc3cncc(C#N)c3)c(CN3CCCC[C@H]3C(=O)O)cc2Cl)cccc1-c1ccc2oc(CCN3CC[C@@H](O)C3)nc2c1 [Example 1029, (S)-1-(5-chloro-2-((5-cyanopyridin-3-yl)methoxy)-4-((3-(2-(2-((R)-3-hydroxypyrrolidin-1-yl)ethyl)benzo[d]oxazol-5-yl)-2-methylbenzyl)oxy)benzyl)piperidine-2-carboxylic acid]
151 to 10000 | Cc1c(COc2cc(OCc3cncc(C#N)c3)c(CN[C@H](CO)C(=O)O)cc2Cl)cccc1-c1ccc2c(c1)ncn2CCN(C)C [Example 1025, (R)-2-((5-chloro-2-((5-cyanopyridin-3-yl)methoxy)-4-((3-(1-(2-(dimethylamino)ethyl)-1H-benzo[d]imidazol-6-yl)-2-methylbenzyl)oxy)benzyl)amino)-3-hydroxypropanoic acid and (R)-2-((5-chloro-2-((5-cyanopyridin-3-yl)methoxy)-4-((3-(1-(2-(dimethylamino)ethyl)-1H-benzo[d]imidazol-5-yl)-2-methylbenzyl)oxy)benzyl)amino)-3-hydroxypropanoic acid]
151 to 10000 | Cc1nn(-c2cccc(COc3cc(OCc4cncc(C#N)c4)c(CN[C@](C)(CO)C(=O)O)cc3Cl)c2C)c(C)c1CN1CC[C@@H](O)C1 [Example 2009, (R)-2-((5-chloro-2-((5-cyanopyridin-3-yl)methoxy)-4-((3-(4-(((R)-3-hydroxypyrrolidin-1-yl)methyl)-3,5-dimethyl-1H-pyrazol-1-yl)-2-methylbenzyl)oxy)benzyl)amino)-3-hydroxy-2-methylpropanoic acid]
151 to 10000 | Cc1c(COc2cc(OCc3cncc(C#N)c3)c(CN3CCCC[C@H]3C(=O)O)cc2Cl)cccc1-c1cccn(CCCN2CC[C@@H](O)C2)c1=O [Example 1039, (S)-1-(5-chloro-2-((5-cyanopyridin-3-yl)methoxy)-4-((3-(1-(3-((R)-3-hydroxypyrrolidin-1-yl)propyl)-2-oxo-1,2-dihydropyridin-3-yl)-2-methylbenzyl)oxy)benzyl)piperidine-2-carboxylic acid]
1 to 10 | CCC(CO)(CO)NCc1cc(Cl)c(OCc2nccc(-c3cccc(OCCCN4CCCCC4)c3C)c2C)cc1OCc1cncc(C#N)c1 [Example 2016, 5-((4-chloro-2-(((1-hydroxy-2-(hydroxymethyl)butan-2-yl)amino)methyl)-5-((3-methyl-4-(2-methyl-3-(3-(piperidin-1-yl)propoxy)phenyl)pyridin-2-yl)methoxy)phenoxy)methyl)nicotinonitrile]
151 to 10000 | Cc1c(COc2cc(OCc3cncc(C#N)c3)c(CN3CCCC[C@H]3C(=O)O)cc2Cl)cccc1-c1cccc(OCCCN2CC[C@@H](O)C2)n1 [Example 1030, (S)-1-(5-chloro-2-((5-cyanopyridin-3-yl)methoxy)-4-((3-(6-(3-((R)-3-hydroxypyrrolidin-1-yl)propoxy)pyridin-2-yl)-2-methylbenzyl)oxy)benzyl)piperidine-2-carboxylic acid]
151 to 10000 | Cc1c(COc2cc(OCc3cncc(C#N)c3)c(C=O)cc2Cl)cccc1-c1ccc2oc(CCN3CC[C@@H](O)C3)nc2c1 [Example 1027, (R)-5-((4-chloro-2-formyl-5-((3-(2-(2-(3-hydroxypyrrolidin-1-yl)ethyl)benzo[d]oxazol-5-yl)-2-methylbenzyl)oxy)phenoxy)methyl)nicotinonitrile]
